Measurements from patent US20140093573A1, “NON-ENTERIC COATED PHARMACEUTICAL COMPOSITION AND USE THEREOF” (NATIONAL TAIWAN UNIVERSITY, priority 2012, published 2014).

System: Caco-2 cells
Assay: Cellular uptake study (flow cytometry, confocal microscopy)
Type: cell-based, Human
Conditions: Caco-2 monolayer, 0.5 h incubation, 200 ng/mL coumarin-6 equivalent
Method: Caco-2 cell monolayers approximately 21-24 days post seeding were used for the cellular uptake study. Before the experiments, the monolayers were washed with HBSS (pH 7.4) twice and then preincubated with HBSS at 37° C. for 30 min. The HBSS (control), free coumarin-6 solution (200 ng/mL), ERSNPs-C6 or PLGANPs-C6 suspension in HBSS equivalent to 200 ng/mL of coumarin-6 were added in the donor compartment while 3 mL of HBSS was added in the receiver compartment. These Caco-2 cell monolayers were incubated for 0.5 h and 1 h at 37° C. in an atmosphere of 5% CO2 and 90% relative humidity. The flow cytometry and confocal microscopy were used to assess the intracellular fluorescence. After 0.5 h and 1 h of incubation, the cell monolayers were washed with phosphate buffered saline (PBS, pH 7.4) three times following by trypsinization for 5 min (100 μL, 0.25% trypsin EDTA). Trypsinization was stopped by adding 1 mL of cold PBS. Cells were detached from the inserts by pipetting and centrifuged at 1000 rpm for 5 min The cells were resuspended in 2 mL PBS and analyzed by using fluorescent activated flow cytometry (BD FACS Calibur) and BD CellQuest software (BD Biosciences, NJ, USA). This experiment was performed in triplicate.
For confocal microscopic study, after 0.5 hours of incubation at 37° C., cell monolayer was washed with PBS three times. […]

## CCN(CC)c1ccc2cc(-c3nc4ccccc4s3)c(=O)oc2c1 [coumarin-6, Coumarin-6]
  cellular uptake efficiency (fluorescence intensity of cells): 1.27±0.3%
